Molecules are shown by their SMILES.

Sequence of human Nav1.8 (Q9Y5Y9 whole entry): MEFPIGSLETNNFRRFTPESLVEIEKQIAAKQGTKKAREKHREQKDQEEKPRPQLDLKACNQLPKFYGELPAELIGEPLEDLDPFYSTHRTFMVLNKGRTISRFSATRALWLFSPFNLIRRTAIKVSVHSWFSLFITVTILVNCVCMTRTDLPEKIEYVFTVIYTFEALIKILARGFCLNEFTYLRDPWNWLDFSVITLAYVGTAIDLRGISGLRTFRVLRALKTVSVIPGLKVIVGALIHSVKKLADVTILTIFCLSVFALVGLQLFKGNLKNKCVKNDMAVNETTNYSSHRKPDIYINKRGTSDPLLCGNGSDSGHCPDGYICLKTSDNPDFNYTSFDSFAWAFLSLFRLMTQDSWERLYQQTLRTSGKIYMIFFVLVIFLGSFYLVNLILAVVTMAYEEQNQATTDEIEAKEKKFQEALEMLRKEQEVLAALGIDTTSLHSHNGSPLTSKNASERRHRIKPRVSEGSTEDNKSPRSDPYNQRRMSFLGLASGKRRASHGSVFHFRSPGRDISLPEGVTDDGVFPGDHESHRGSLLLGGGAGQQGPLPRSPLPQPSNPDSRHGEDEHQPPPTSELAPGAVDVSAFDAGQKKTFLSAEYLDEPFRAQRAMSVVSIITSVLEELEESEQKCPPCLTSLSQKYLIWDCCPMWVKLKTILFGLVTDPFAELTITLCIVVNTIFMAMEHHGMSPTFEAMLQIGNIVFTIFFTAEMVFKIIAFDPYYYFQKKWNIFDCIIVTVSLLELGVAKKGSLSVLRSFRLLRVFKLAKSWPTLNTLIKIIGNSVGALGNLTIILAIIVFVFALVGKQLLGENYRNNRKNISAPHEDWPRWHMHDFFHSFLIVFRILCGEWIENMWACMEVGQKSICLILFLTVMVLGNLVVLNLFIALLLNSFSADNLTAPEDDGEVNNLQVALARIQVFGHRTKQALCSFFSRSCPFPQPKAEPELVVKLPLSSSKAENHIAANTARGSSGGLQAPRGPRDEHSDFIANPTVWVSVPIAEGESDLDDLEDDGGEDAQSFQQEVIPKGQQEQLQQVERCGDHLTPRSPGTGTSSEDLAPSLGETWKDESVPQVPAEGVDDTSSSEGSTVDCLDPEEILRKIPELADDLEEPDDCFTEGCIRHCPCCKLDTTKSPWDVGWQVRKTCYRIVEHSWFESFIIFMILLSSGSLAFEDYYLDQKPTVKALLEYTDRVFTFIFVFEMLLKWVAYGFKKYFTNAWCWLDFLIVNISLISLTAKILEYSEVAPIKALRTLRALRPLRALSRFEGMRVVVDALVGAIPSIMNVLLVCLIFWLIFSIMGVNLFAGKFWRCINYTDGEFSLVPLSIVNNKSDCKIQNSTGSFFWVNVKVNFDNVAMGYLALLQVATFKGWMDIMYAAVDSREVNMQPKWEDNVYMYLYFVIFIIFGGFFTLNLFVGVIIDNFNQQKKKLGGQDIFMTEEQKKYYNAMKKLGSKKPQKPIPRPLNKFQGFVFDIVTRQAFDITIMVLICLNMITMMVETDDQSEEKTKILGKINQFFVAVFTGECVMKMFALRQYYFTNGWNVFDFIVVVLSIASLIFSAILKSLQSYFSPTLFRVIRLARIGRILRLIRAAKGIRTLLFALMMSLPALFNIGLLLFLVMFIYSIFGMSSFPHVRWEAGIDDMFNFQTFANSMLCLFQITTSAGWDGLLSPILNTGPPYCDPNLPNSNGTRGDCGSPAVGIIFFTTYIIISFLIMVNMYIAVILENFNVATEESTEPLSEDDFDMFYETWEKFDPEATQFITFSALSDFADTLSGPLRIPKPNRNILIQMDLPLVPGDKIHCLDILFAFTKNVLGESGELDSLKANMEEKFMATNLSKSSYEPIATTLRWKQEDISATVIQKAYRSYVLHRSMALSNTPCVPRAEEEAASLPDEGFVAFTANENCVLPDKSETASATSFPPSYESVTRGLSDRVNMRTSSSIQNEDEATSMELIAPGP

For the assay, the target named is human Nav1.8 (Homo sapiens (Human), UniProt Q9Y5Y9). In words: Nav1.8 Qube® Assay (automated 384-well patch-clamp). It is filed as cell-based. The conditions noted are these: human Nav1.8 channels stably expressed in HEK 293 cells. The source says:
Qube® Assay Experimental Procedure
Background: Patch clamp records ionic current or voltage across a cell membrane.
In general, IC50 refers to the concentration that inhibits the measured activity by half. A high value points to lower potency. In turn, `CC1NC(=O)OC1C(=O)NC(c1ccc(Cl)cc1)c1ccc(Cl)cc1` (single isomer, unassigned) [Example 6A, (cis or trans)-N-(bis(4-chlorophenyl)methyl)-4-methyl-2-oxooxazolidine-5-carboxamide] gave a concentration for half-maximal inhibition (IC50) of 442 nM.
The result for `O=C1NC[C@@H](C(=O)NC(c2ccc(Cl)cc2)C23C4C5C6C4C2C6C53)O1` (single isomer, unassigned) [Example 56B, (S)—N—((R or S)-(4-chlorophenyl)(cuban-1-yl)methyl)-2-oxooxazolidine-5-carboxamide] reads 289 nM; that for `O=C1NC[C@@H](C(=O)NC(c2ccc(Cl)c(C(F)(F)F)n2)C2CCC(F)(F)CC2)O1` (single isomer, unassigned) [Example 63B, (S)-N-((R or S)-(5-chloro-6-(trifluoromethyl)pyridin-2-yl)(4,4-difluoro-cyclohexyl)methyl)-2-oxooxazolidine-5-carboxamide], 574 nM; that for `O=C1NC[C@@H](C(=O)NC(c2ccc(Cl)cc2)c2ccc(Cl)cc2OC(F)(F)F)O1` (single isomer, unassigned) [Example 47B, (S)-N-((R or S)-(4-chloro-2-(trifluoromethoxy)phenyl)(4-chlorophenyl)-methyl)-2-oxooxazolidine-5-carboxamide], 17 nM.
In turn, `O=C1NC[C@@H](C(=O)NC(c2ccc(OCC(F)(F)F)nc2)c2ccc(F)c(Cl)c2F)O1` (single isomer, unassigned) [Example 50A, (S)—N—((R or S)-(3-chloro-2,4-difluorophenyl)(6-(2,2,2-trifluoroethoxy)pyridin-3-yl)methyl)-2-oxo-oxazolidine-5-carboxamide] had an IC50 of 1.6 nM.
The result for `O=C1NC[C@@H](C(=O)NC(c2ccc(F)c(Cl)c2F)[C@@H]2C[C@@H]3[C@H](C2)C3(F)F)O1` (single isomer, unassigned) [Example 74B, (S)-N-((R or S)-(3-chloro-2,4-difluorophenyl) ((trans)-6,6-difluorobicyclo[3.1.0]hexan-3-yl)methyl)-2-oxooxazolidine-5-carboxamide] reads 389 nM; that for `O=C1NC[C@@H](C(=O)NC(c2ccccc2)c2ccc(Cl)c(Cl)c2)O1` (single isomer, unassigned) [Example 25A, (S)-N-((R or S)-(3,4-dichlorophenyl) (phenyl)methyl)-2-oxooxazolidine-5-carboxamide], 2.7 nM.
Next, `O=C1NC[C@@H](C(=O)NC(c2ccc(F)c(Cl)c2F)[C@@H]2C[C@@H]3[C@H](C2)C3(F)F)O1` (single isomer, unassigned) [Example 74A, (S)-N-((R or S)-(3-chloro-2,4-difluorophenyl) ((trans)-6,6-difluorobicyclo[3.1.0]hexan-3-yl)methyl)-2-oxooxazolidine-5-carboxamide]: 11 nM.
Next, `O=C1NC[C@@H](C(=O)NC(c2ccc(F)c(Cl)c2)c2cc(C(F)(F)F)[nH]n2)O1` (single isomer, unassigned) [Example 5A, (S)—N—((R or S)-(3-chloro-4-fluorophenyl)(5-(trifluoromethyl)-1H-pyrazol-3-yl)methyl)-2-oxooxazolidine-5-carboxamide]: 4.8 nM; `O=C1NC[C@@H](C(=O)NC(c2ccc(Cl)cc2)c2coc(C(F)(F)F)n2)O1` (single isomer, unassigned) [Example 18A, (S)-N-((R or S)-(4-chlorophenyl)(2-(trifluoromethyl)oxazol-4-yl)methyl)-2-oxooxazolidine-5-carboxamide]: 31 nM; `O=C1NC[C@@H](C(=O)NC(c2ccc(F)c(Cl)c2)c2ccc(F)c(OCC(F)(F)F)n2)O1` (single isomer, unassigned) [Example 1B, (S)—N—((R or S)-(3-chloro-4-fluorophenyl)(5-fluoro-6-(2,2,2-trifluoroethoxy)pyridin-2-yl)methyl)-2-oxo-oxazolidine-5-carboxamide]: 4 nM.
For `O=C1NC[C@@H](C(=O)NC(c2ccc(Cl)cc2)c2ccc(F)c(C(F)F)n2)O1` (single isomer, unassigned) [Example 16B], inhibition was half-maximal at 3.3 nM (IC50).
